Data published in US20230099441A1, “HETEROCYCLIC COMPOUND, APPLICATION THEREOF, AND COMPOSITION CONTAINING SAME” (GenEros Biopharma Ltd., priority 2019, published 2023).

Assays:
[1] = test system: mouse collagen-induced arthritis model; assay: Therapeutic efficacy in a mouse collagen-induced arthritis model (clinical score); type: in vivo; conditions: mean of group, total score 0-12, oral, Methotrexate 0.25 mg/kg once a week, Tofacitinib 5 mg/kg once a day, X8 1 mg/kg once a day
From the text: Example of Effect 2: Evaluation of the Therapeutic Efficacy of X8 Compound in a Mouse Collagen-Induced Arthritis Model
(§1) Sixty male DBA/1J mice (9-10 weeks old, H-2q haplotype) were acclimatized in a standard animal room for one week and then randomly divided into 5 groups. Except for the healthy control group, the rest were inoculated with collagen antigen injection, and then received oral treatment with different compounds. The brief procedure was to mix bovine type II collagen (purchased from Chondrex, 20021) with an equal volume of Freund's complete adjuvant (purchased from Sigma, F5881), the concentration was 4 mg/ml, and it was treated with a homogenizer at a speed of 20,000 revolutions/min for 5-10 minutes. A needle was inserted between the left side of the dorsal caudal artery and the lateral vein of the mouse, and 50 microliters of modeling agent was injected subcutaneously. 21 days after the first injection, another injection was injected between the right side of the dorsal tail artery and the lateral vein of the mouse. After the first injection, oral administration was started. The drug was formulated with […] PEG300, and it was prepared for immediate use. […] The total score was between 0-12 points, and the swelling of the foot after vaccination was not calculated.

[2] = Body weight of animals in the mouse collagen-induced arthritis model; type: in vivo; conditions: oral, X8 1 mg/kg once a day; for body weight of animals, Mean/g: mean of group, Methotrexate 0.25 mg/kg once a week, Tofacitinib 5 mg/kg once a day
From the text: as §1

## CN(Cc1cnc2nc(N)nc(N)c2n1)c1ccc(C(=O)N[C@@H](CCC(=O)O)C(=O)O)cc1 [Methotrexate, methotrexate]
[1]; day 0
  clinical score of arthritis, Mean (the larger the value, the more severe the disease): 0.00
[1]; day 21
  clinical score of arthritis, Mean (the larger the value, the more severe the disease): 0.00
[1]; day 25
  clinical score of arthritis, Mean (the larger the value, the more severe the disease): 0.00
[1]; day 28
  clinical score of arthritis, Mean (the larger the value, the more severe the disease): 0.40
[1]; day 31
  clinical score of arthritis, Mean (the larger the value, the more severe the disease): 1.32
[1]; day 33
  clinical score of arthritis, Mean (the larger the value, the more severe the disease): 1.55
[1]; day 35
  clinical score of arthritis, Mean (the larger the value, the more severe the disease): 2.05
[1]; day 38
  clinical score of arthritis, Mean (the larger the value, the more severe the disease): 2.41
[1]; day 40
  clinical score of arthritis, Mean (the larger the value, the more severe the disease): 2.60
[1]; day 42
  clinical score of arthritis, Mean (the larger the value, the more severe the disease): 3.66
[1]; day 45
  clinical score of arthritis, Mean (the larger the value, the more severe the disease): 4.61
[2]; day 0
  body weight of animals, Mean/g: 21.92 g
[2]; day 4
  body weight of animals, Mean/g: 22.30 g
[2]; day 7
  body weight of animals, Mean/g: 22.91 g
[2]; day 11
  body weight of animals, Mean/g: 23.33 g
[2]; day 14
  body weight of animals, Mean/g: 21.72 g
[2]; day 18
  body weight of animals, Mean/g: 23.92 g
[2]; day 20
  body weight of animals, Mean/g: 24.09 g
[2]; day 25
  body weight of animals, Mean/g: 23.64 g
[2]; day 28
  body weight of animals, Mean/g: 23.48 g
[2]; day 31
  body weight of animals, Mean/g: 23.12 g
[2]; day 33
  body weight of animals, Mean/g: 23.00 g
[2]; day 35
  body weight of animals, Mean/g: 22.08 g
[2]; day 38
  body weight of animals, Mean/g: 22.86 g
[2]; day 40
  body weight of animals, Mean/g: 22.70 g
[2]; day 42
  body weight of animals, Mean/g: 22.45 g
[2]; day 45
  body weight of animals, Mean/g: 22.30 g
[2]; whole experiment, days 0-45, methotrexate 0.25 mg/kg once a week, tofacitinib 5 mg/kg once a day
  effect on body weight of animals (in words): two sudden drops
